Results as given in patent US12240854B2, “TRAF 6 inhibitors” (Helmholtz Zentrum München - Deutsches Forschungszentrum für …, priority 2018, dated 2025).
Entries after “also recorded” stand apart in the source; their conditions may differ.

Experiments:
ITCH = molecular target: T1, ITCH (Homo sapiens, UniProt Q96J02); test: In vitro ubiquitination assay, ITCH ubiquitin ligase kit; assay type: biochemical
T1 construct: purchased Boston Biochem
Method: For analysis of cIAP1, MDM2, TRIM63, RNF4, ITCH and E6AP mediated poly-ubiquitination, the respective ubiquitin ligase kit from Boston Biochem (K-102, K-260, K-200B, K-220, K-240 and K-270) was used. Here, reaction buffer, E1, E2 and E3 enzyme (and p53 substrate in case of MDM2) were mixed and pre-incubated with compound or DMSO for 5 minutes at room temperature before adding Mg^2+-ATP and mono-ubiquitin for reaction start. Ubiquitination was visualized by Western Blot analyses.

Caco-2 = test: ADME: Caco-2 assay; assay type: in vitro ADME
Method: All ADME (plasma stability, plasma protein binding, microsomal stability, Log D, Caco-2 assay, CYP450 inhibition and hERG predictor assay) as well as pharmacokinetic studies (Tmax, Cmax, AUC0-240min, Mean Residence Time, Elimination half life, Elimination rate constant, Volume of Distribution and Clearance) of C25-140 (compound 3) were conducted by Bienta Enamine Biology Services of Bienta/Enamine Ltd.

T1 sequence (Q96J02 whole entry): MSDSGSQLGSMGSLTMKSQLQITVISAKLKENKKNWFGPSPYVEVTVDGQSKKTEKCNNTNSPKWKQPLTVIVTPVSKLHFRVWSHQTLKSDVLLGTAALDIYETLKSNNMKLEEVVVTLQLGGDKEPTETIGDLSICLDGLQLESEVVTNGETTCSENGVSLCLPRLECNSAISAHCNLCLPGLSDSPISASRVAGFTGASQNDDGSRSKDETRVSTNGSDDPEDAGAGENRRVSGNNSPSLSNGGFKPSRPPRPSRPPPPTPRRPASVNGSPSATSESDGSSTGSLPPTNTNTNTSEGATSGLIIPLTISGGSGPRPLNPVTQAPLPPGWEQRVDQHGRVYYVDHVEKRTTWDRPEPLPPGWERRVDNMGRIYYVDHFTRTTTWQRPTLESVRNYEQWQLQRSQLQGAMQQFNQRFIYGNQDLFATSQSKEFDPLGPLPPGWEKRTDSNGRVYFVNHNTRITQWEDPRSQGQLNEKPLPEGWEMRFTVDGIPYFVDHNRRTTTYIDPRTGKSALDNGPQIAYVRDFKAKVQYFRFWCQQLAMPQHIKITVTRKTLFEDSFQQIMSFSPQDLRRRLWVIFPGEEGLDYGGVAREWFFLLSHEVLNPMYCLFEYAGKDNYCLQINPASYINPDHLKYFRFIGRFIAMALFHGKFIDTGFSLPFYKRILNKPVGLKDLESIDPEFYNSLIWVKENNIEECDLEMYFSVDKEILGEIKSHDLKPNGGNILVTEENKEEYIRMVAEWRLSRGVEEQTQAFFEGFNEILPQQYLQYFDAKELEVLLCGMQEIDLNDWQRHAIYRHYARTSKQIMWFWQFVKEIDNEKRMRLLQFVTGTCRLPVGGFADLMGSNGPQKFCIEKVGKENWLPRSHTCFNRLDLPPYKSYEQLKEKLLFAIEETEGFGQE

## Cc1nn(-c2ccc3nnc(C)n3n2)c(C)c1CCC(=O)N1CCC(Cc2ccccc2)CC1 [Example C25-140, 1-(4-Benzylpiperidin-1-yl)-3-(3,5-dimethyl-1-(3-methyl-[1,2,4]-triazolo-[4,3-b]-pyridazin-6-yl)-1H-pyrazol-4-yl)-propan-1-one]
ITCH
  ITCH auto-ubiquitination: not influenced; also recorded: not affected
Caco-2
  Caco-2 permeability: good penetration of the Caco-2 layer
